From US20170057955A1, “Pyridopyrimidinone Compounds for Modulating the Catalytic Activity of Histone Lysine Demethylases (KDMs)” (Dong-A Socio Holdings Co., Ltd., priority 2015, published 2017) come the findings set out here.

In general, inhibition refers to the share of the control response that was lost under treatment.

The test deals with T1, Recombinant human JARID1B/KDM5B (Homo sapiens, UniProt Q9UGL1).
T1 construct: purchased Active Motif 31432; host or cells: Sf9 insect cells
T1 sequence (Q9UGL1 whole entry): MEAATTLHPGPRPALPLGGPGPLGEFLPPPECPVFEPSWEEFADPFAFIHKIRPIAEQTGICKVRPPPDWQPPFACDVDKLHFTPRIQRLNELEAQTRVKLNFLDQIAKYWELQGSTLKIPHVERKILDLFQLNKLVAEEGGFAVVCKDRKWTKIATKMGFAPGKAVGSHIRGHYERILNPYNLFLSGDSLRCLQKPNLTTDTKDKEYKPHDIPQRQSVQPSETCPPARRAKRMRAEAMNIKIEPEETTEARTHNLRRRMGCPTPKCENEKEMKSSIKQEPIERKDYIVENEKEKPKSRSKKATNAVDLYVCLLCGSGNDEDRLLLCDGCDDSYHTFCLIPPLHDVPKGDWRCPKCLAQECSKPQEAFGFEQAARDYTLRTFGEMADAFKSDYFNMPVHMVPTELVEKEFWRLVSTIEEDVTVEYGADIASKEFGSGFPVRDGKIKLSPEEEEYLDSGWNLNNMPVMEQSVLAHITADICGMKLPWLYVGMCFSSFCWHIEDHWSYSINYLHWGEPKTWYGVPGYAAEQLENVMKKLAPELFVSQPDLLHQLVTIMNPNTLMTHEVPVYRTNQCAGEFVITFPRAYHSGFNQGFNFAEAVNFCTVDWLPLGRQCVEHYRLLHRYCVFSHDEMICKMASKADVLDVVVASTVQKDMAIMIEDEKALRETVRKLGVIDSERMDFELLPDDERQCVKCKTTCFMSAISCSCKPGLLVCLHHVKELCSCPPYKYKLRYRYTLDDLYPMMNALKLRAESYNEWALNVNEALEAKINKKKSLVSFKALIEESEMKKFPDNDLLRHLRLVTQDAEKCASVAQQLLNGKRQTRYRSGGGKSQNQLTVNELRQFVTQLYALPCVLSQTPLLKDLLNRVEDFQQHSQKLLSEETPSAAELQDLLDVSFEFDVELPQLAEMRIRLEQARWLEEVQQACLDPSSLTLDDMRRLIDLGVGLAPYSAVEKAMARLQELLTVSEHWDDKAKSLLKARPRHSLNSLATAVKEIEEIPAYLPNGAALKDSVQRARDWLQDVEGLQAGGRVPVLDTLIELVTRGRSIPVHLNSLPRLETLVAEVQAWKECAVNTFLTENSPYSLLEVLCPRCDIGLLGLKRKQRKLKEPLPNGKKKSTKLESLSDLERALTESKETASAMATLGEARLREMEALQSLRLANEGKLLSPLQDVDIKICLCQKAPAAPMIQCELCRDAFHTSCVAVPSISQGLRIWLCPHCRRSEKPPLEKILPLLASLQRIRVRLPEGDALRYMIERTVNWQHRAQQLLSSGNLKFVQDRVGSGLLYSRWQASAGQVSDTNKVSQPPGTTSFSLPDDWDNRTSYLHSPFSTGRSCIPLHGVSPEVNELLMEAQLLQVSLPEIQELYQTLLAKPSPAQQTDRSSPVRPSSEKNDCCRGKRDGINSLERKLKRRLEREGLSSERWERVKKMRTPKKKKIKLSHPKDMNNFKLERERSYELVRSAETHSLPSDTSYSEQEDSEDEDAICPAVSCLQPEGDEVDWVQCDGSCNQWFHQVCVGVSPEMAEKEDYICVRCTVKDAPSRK
Nature of the test: LANCE Ultra TR-FRET JARID1B (KDM5B) demethylase inhibition assay. The format is biochemical. Particulars: 0.1 uM of test-compounds, FLAG-JARID1B, 500 nM biotinylated H3K4me3 peptide substrate, 30 min at room temperature. The text has this:
FLAG-tagged JARID1B (also known as KDM5B) protein was screened against 49 compounds. For this compound screening, LANCE Ultra time-resolved fluorescence resonance energy transfer (TR-FRET) assay was employed using a europoium (Eu)-labeled antibody that can specifically recognize mono- or dimethylated peptides (H3K4me2/1) and ULight-streptavidin (ULight-SA), a small molecule fluorescent dye. When irradiated at 340 nm, the energy from the Eu donor is transferred to the ULight acceptor dye which, in turn, emits light primarily at 665 nm. The ratio between the intensity of primary emission at 665 nm and that of secondary emission at […] was used to quantify the level of lysine methylation. As JARID1B removes more methyl moieties from tri-methylated substrate peptides (H3K4me3), the ratio increases until the enzyme reaction is terminated. In case, therefore, the compounds disrupt the enzymatic activity completely, the ratio becomes equal to a background value.
Recombinant human JARID1B/KDM5B (accession number NP_006609) of molecular weight 179.9 KDa was expressed in Sf9 insect cells and contains an N-terminal FLAG tag. The enzyme was obtained from Active Motif (Catalog No. 31432). The tri-methylated histone substrate peptide of purity greater than 95% was a synthetic peptide in which the first 21 amino acids correspond to the human histone H3 sequence with three extra amino acids and a biotin motif (GGK-biotin) linked to the C-terminus [sequence: ART-K(Me3)-QTARKSTGGKAPRKQLA-GGK-biotin-OH], (AnaSpec, Fremont, Calif. Catalog. No. ANA-1413). The reference inhibitor compound tranylcypromine (or trans-2-phenylcyclopropylamine hydrochloride, also known as, 2-PCPA) was purchased from Sigma (St. Louis, Mo. Cat. no. P8511). ULight-labeled streptavidin (ULight-SA, Catalog no. TRF0102), Eu-W1024-labeled anti-methyl-Histone H3 Lysine 4 (H3K4me1-2) Antibody (Catalog no. TRF0402), and LANCE detection buffer 10× (Catalog no. CR97-100) were obtained from PerkinElmer (Montreal, Quebec, Canada). The TR-FRET experiments were carried out in white, low-volume 384-wellplates purchased from PerkinElmer (ProxiPlate_-384 Plus, Catalog no. 6008280).
The TR-FRET signal was measured in the presence both of the bio-H3K4me3 peptide and FLAG-JARID1B by detecting any H3K4me2/1 peptide produced in the assay system. Assays using only the bio-H3K4me2 peptide were served as a positive control. Robust enzymatic progressions were observed by using JARID1B at concentrations ranging from 10 to 30 nM. In a typical TR-FRET experiment, JARID1B was pre-incubated with or without 0.1 uM of test-compounds (containing 1% DMSO final) for 5 min. The enzymatic reactions were initiated by the addition of 500 nM biotinylated H3K4me3 peptide substrate plus 500 uM of 2-OG 25 uM Fe(II) and 2 mM ascorbate. The reaction buffer also contained 50 mM Hepes (pH7.5), 0.01% (v/v) Tween 20, and 50 mM NaCl. The reaction mixture was incubated for 30 min at room temperature before reading on an EnVision plate reader (PerkinElmer, Waltham, Mass.).
(In TR-FRET formats the signal depends on donor and acceptor labels being close together.)
As for `Cc1cccc(-c2cnn(-c3nccc4c(=O)[nH]cnc34)c2)c1` [Compound 1, 8-(4-(m-tolyl)-1H-pyrazol-1-yl)pyrido[3,4-d]pyrimidin-4(3H)-one], the inhibition at 0.1 µM is below 20%.
Consider `CN1CCN(Cc2ccc(-c3cnn(-c4nccc5c(=O)[nH]cnc45)c3)cc2)CC1` [Compound 2, 8-(4-(4-((4-methylpiperazin-1-yl)methyl)phenyl)-1H-pyrazol-1-yl)pyrido[3,4-d]pyrimidin-4(3H)-one], for which the inhibition at 0.1 µM was below 20%.
Consider `O=c1[nH]cnc2c(-n3cc(-c4cccc(CO)c4)cn3)nccc12` [Compound 3, 8-(4-(3-(hydroxymethyl)phenyl)-1H-pyrazol-1-yl)pyrido[3,4-d]pyrimidin-4(3H)-one], for which the inhibition at 0.1 µM was below 20%.
`O=c1[nH]cnc2c(-n3cc(-c4ccc(F)cc4)cn3)nccc12` [Compound 4, 8-(4-(4-fluorophenyl)-1H-pyrazol-1-yl)pyrido[3,4-d]pyrimidin-4(3H)-one]: the inhibition at 0.1 µM was below 20%.
In the case of `O=c1[nH]cnc2c(-n3cc(-c4cccc(OCc5ccccc5)c4)cn3)nccc12` [Compound 5, 8-(4-(3-(benzyloxy)phenyl)-1H-pyrazol-1-yl)pyrido[3,4-d]pyrimidin-4(3H)-one] it was below 20%; in that of `CN1CCN(Cc2cccc(-c3cnn(-c4nccc5c(=O)[nH]cnc45)c3)c2)CC1` [Compound 6, 8-(4-(3-((4-methylpiperazin-1-yl)methyl)phenyl)-1H-pyrazol-1-yl)pyrido[3,4-d]pyrimidin-4(3H)-one], below 20%.
Turning to `O=c1[nH]cnc2c(-n3cc(-c4cccc(CCCO)c4)cn3)nccc12` [Compound 7, 8-(4-(3-(3-hydroxypropyl)phenyl)-1H-pyrazol-1-yl)pyrido[3,4-d]pyrimidin-4(3H)-one], the inhibition at 0.1 µM was below 20%.
For `O=c1[nH]cnc2c(-n3cc(-c4ccccc4CO)cn3)nccc12` [Compound 9, 8-(4-(2-(hydroxymethyl)phenyl)-1H-pyrazol-1-yl)pyrido[3,4-d]pyrimidin-4(3H)-one], the inhibition at 0.1 µM was below 20%.
The result for `O=c1[nH]cnc2c(-n3cc(-c4ccccc4Oc4ccccc4)cn3)nccc12` [Compound 10, 8-(4-(2-phenoxyphenyl)-1H-pyrazol-1-yl)pyrido[3,4-d]pyrimidin-4(3H)-one] reads below 20%; that for `Cn1cc(-c2cnn(-c3nccc4c(=O)[nH]cnc34)c2)cn1` [Compound 11, 8-(1′-methyl-1H,1′H-[4,4′-bipyrazol]-1-yl)pyrido[3,4-d]pyrimidin-4(3H)-one], below 20%.
`O=c1[nH]cnc2c(-n3cc(-c4cccnc4)cn3)nccc12` [Compound 12, 8-(4-(pyridin-3-yl)-1H-pyrazol-1-yl)pyrido[3,4-d]pyrimidin-4(3H)-one]: the inhibition at 0.1 µM was below 20%.
Turning to `O=c1[nH]cnc2c(-n3cc(-c4cnn(Cc5ccccc5)c4)cn3)nccc12` [Compound 13, 8-(1′-benzyl-1H,1′H-[4,4′-bipyrazol]-1-yl)pyrido[3,4-d]pyrimidin-4(3H)-one], the inhibition at 0.1 µM was below 20%.
For the compound `Nc1nn(-c2nccc3c(=O)[nH]cnc23)cc1-c1ccc(N2CCNCC2)nc1` [Compound 14, 8-(3-amino-4-(6-(piperazin-1-yl)pyridin-3-yl)-1H-pyrazol-1-yl)pyrido[3,4-d]pyrimidin-4(3H)-one], the inhibition at 0.1 µM lay in the range of 20 to 50%.
Consider `Cn1cc(-c2cn(-c3nccc4c(=O)[nH]cnc34)nc2N)cn1` [Compound 15, 8-(3-amino-1′-methyl-1H,1′H-[4,4'-bipyrazol]-1-yl)pyrido[3,4-d]pyrimidin-4(3H)-one], for which the inhibition at 0.1 µM was 20 to 50%.
For `Nc1nn(-c2nccc3c(=O)[nH]cnc23)cc1-c1cccnc1` [Compound 16, 8-(3-amino-4-(pyridin-3-yl)-1H-pyrazol-1-yl)pyrido[3,4-d]pyrimidin-4(3H)-one], the inhibition at 0.1 µM was below 20%.
The result for `CN1CCN(c2ccc(-c3cn(-c4nccc5c(=O)[nH]cnc45)nc3N)cc2)CC1` [Compound 17, 8-(3-amino-4-(4-(4-methylpiperazin-1-yl)phenyl)-1H-pyrazol-1-yl)pyrido[3,4-d]pyrimidin-4(3H)-one] reads 20 to 50%; that for `CC(=O)Nc1ccc(-c2cn(-c3nccc4c(=O)[nH]cnc34)nc2N)cc1` [Compound 18, N-(4-(3-amino-1-(4-oxo-3,4-dihydropyrido[3,4-d]pyrimidin-8-yl)-1H-pyrazol-4-yl)phenyl)acetamide], 20 to 50%; that for `Nc1nn(-c2nccc3c(=O)[nH]cnc23)cc1-c1ccc(CCCO)cc1` [Compound 19, 8-(3-amino-4-(4-(3-hydroxypropyl)phenyl)-1H-pyrazol-1-yl)pyrido[3,4-d]pyrimidin-4(3H)-one], 20 to 50%.
For `Nc1nn(-c2nccc3c(=O)[nH]cnc23)cc1-c1cccc(N2CCNCC2)c1` [Compound 20, 8-(3-amino-4-(3-(piperazin-1-yl)phenyl)-1H-pyrazol-1-yl)pyrido[3,4-d]pyrimidin-4(3H)-one], the inhibition at 0.1 µM was at least 50%.
The result for `Nc1nn(-c2nccc3c(=O)[nH]cnc23)cc1-c1ccc(C(=O)N2CCOCC2)cc1` [Compound 21, 8-(3-amino-4-(4-(morpholine-4-carbonyl)phenyl)-1H-pyrazol-1-yl)pyrido[3,4-d]pyrimidin-4(3H)-one] reads at least 50%; that for `Nc1nn(-c2nccc3c(=O)[nH]cnc23)cc1-c1cnn(C2CCNCC2)c1` [Compound 22, 8-(3-amino-1′-(piperidin-4-yl)-1H,1′H-[4,4′-bipyrazol]-1-yl)pyrido[3,4-d]pyrimidin-4(3H)-one], at least 50%.
The result for `Nc1nn(-c2nccc3c(=O)[nH]cnc23)cc1-c1ccc(F)cc1` [Compound 23, 8-(3-amino-4-(4-fluorophenyl)-1H-pyrazol-1-yl)pyrido[3,4-d]pyrimidin-4(3H)-one] reads at least 50%.
For `CC(=O)c1ccc(-c2cn(-c3nccc4c(=O)[nH]cnc34)nc2N)cc1` [Compound 24, 8-(4-(4-acetylphenyl)-3-amino-1H-pyrazol-1-yl)pyrido[3,4-d]pyrimidin-4(3H)-one], the inhibition at 0.1 µM is at least 50%.
Consider `Nc1nn(-c2nccc3c(=O)[nH]cnc23)cc1-c1ccc(O)cc1` [Compound 25, 8-(3-amino-4-(4-hydroxyphenyl)-1H-pyrazol-1-yl)pyrido[3,4-d]pyrimidin-4(3H)-one], for which the inhibition at 0.1 µM lay within 20 to 50%.
Consider `Nc1nn(-c2nccc3c(=O)[nH]cnc23)cc1-c1cnn(CCO)c1` [Compound 26, 8-(3-amino-1′-(2-hydroxyethyl)-1H,1′H-[4,4′-bipyrazol]-1-yl)pyrido[3,4-d]pyrimidin-4(3H)-one], for which the inhibition at 0.1 µM was in the range of 20 to 50%.
`Nc1nn(-c2nccc3c(=O)[nH]cnc23)cc1-c1cnn(CCN2CCCC2)c1` [Compound 27, 8-(3-amino-1′-(2-(pyrrolidin-1-yl)ethyl)-1H,1′H-[4,4′-bipyrazol]-1-yl)pyrido[3,4-d]pyrimidin-4(3H)-one]: the inhibition at 0.1 µM was in the range of 20 to 50%.
In the case of `Nc1nn(-c2nccc3c(=O)[nH]cnc23)cc1-c1cnn(Cc2ccccc2)c1` [Compound 28, 8-(3-amino-1′-benzyl-1H,1′H-[4,4′-bipyrazol]-1-yl)pyrido[3,4-d]pyrimidin-4(3H)-one], the inhibition at 0.1 µM is at least 50%.
For `Nc1nn(-c2nccc3c(=O)[nH]cnc23)cc1-c1cnn(CCN2CCOCC2)c1` [Compound 29, 8-(3-amino-1′-(2-morpholinoethyl)-1H,1′H-[4,4′-bipyrazol]-1-yl)pyrido[3,4-d]pyrimidin-4(3H)-one], the inhibition at 0.1 µM is 20 to 50%.
With `CN1CCN(CCn2cc(-c3cn(-c4nccc5c(=O)[nH]cnc45)nc3N)cn2)CC1` [Compound 30, 8-(3-amino-1′-(2-(4-methylpiperazin-1-yl)ethyl)-1H,1′H-[4,4′-bipyrazol]-1-yl)pyrido[3,4-d]pyrimidin-4(3H)-one], the inhibition at 0.1 µM lay within 20 to 50%.
